Data published in patent US20210112813A1, “HERBICIDAL COMPOSITION AND USE THEREOF” (NANTONG JIANGSHAN AGROCHEMICAL & CHEMICALS CO., LTD., priority 2019, published 2021).

Tests used:
Type in all cases: in vivo
[1] = test system: Horseweed herb (collected from Shenyang, Liaoning); test: Example 13 combined effect on weeds, Gowing method
Procedure: (§1) The weed cultivation and test material cultivation method was as follows: quantitative weed seeds abutilon and bristlegrass were respectively sown in a paper cup filled with nutrient soil with a diameter of 7 cm, and then cultivated in the greenhouse after covering the soil, suppressing and watering. The stem and leaf spray treatment was performed when the grass weeds grew to 5-7 leaf stage, and broad-leaved weeds grew to 6-8 leaf stage; the tests were repeated for 3 times. the treatment and drug solution naturally dried, the weeds were placed in the greenhouse to be managed according to conventional methods. According to the suppression or death of the weeds, a visual control effect investigation was conducted 30 days after the treatment.
(§2) The application adopted the Gowing method to evaluate the combined effect of the proposed composition.
(§3) X—Weed control effect when the amount of herbicide component A is P;
(§4) Y—Weed control effect when the amount of herbicide component B is Q;
(§5) E0—Theoretical control effect when the amount of herbicide component A is […];
(§6) E—The measured control effect after the herbicide component A and the herbicide component B are mixed according to the above ratio.
(§7) When E−E0>10%, it is synergism; when E−E0<−10%, it is antagonism; when E−E0 value is between ±10%, it is addition.
(§8) The test targets were horseweed herb collected from Shenyang, Liaoning and goosegrass collected from Zhengzhou, Henan.

[2] = test system: goosegrass (collected from Zhengzhou, Henan); test: Example 13 combined effect on weeds, Gowing method
Procedure: as §1, §2, §3, §4, §5, §6, §7, §8

[3] = test system: Abutilon; test: Example 12 indoor pot experiment, stem and leaf spray, visual control effect 30 days after treatment, Gowing method
Procedure: (§9) The combined effect of the composition on the weeds was clarified by the indoor pot experiment.
as §1, §2, §3, §4, §5, §6, §7

[4] = test system: Bristlegrass; test: as above
Procedure: as §9, §1, §2, §3, §4, §5, §6, §7

[5] = test system: Echinochloacrusgalli; test: Example 15 indoor pot planting, death rate / herbicidal speed, weeds in 6-leaf stage
Procedure: (§10) The death rate of weeds after application of the herbicidal composition of the present application was measured and compared with the herbicidal rate when a single component was used. The test used the method of indoor pot planting. At the time of treatment, abutilon and barnyardgrass were in 6-leaf stage.

[6] = test system: Abutilon; test: as above
Procedure: as §10

[7] = test system: Bristlegrass; test: Greenhouse pot test, pre-emergence soil treatment, visual control effect 30 days after treatment, Gowing method
Procedure: In the present application, indoor combined action of the compound of herbicide active component A and B on weeds was measured to determine the combined effect of the composition on weeds, wherein the structure of the active component A was as follows:
The weed cultivation method was as follows: quantitative weed seeds abutilon and bristlegrass were respectively sown in a paper cup filled with nutrient soil with a diameter of 7 cm, and then cultivated in the greenhouse after covering the soil, suppressing and watering. The post-emergence stem and leaf treatment was performed when the grass weeds grew to 5-7 leaf stage, broad-leaved weeds grew to 6-8 leaf stage; the pre-emergence soil treatment was performed the second day after sowing, and the early post-emergence treatment was performed after sowing and before emergence; the experiment was repeated 3 times. After the treatment and drug solution naturally dried, the weeds were placed in the greenhouse to be managed according to conventional methods. According to the suppression or death of the weeds, a visual control effect investigation was conducted 30 days after the treatment. The application adopted the Gowing method to evaluate the combined effect of the proposed composition.
as §3, §4, §5, §6, §7

[8] = test system: Eclipta alba; test: as above
[9] = Example 13 Table 2, dose 37.5 ga.i./hm^2
[10] = Example 13 Table 2, dose 75 ga.i./hm^2
[11] = Example 13 Table 2, dose 150 ga.i./hm^2
[12] = Example 13 Table 2, dose 300 ga.i./hm^2
[13] = Example 12 Table 1, dose 37.5 ga.i./hm^2
[14] = Example 12 Table 1, dose 75 ga.i./hm^2
[15] = Example 12 Table 1, dose 150 ga.i./hm^2
[16] = Example 12 Table 1, dose 300 ga.i./hm^2
[17] = Table 11, 7 days after treatment, dose 50 ga.i./hm^2
[18] = Table 11, 7 days after treatment, dose 100 ga.i./hm^2
[19] = Table 11, 7 days after treatment, dose 200 ga.i./hm^2
[20] = Table 11, 7 days after treatment, dose 400 ga.i./hm^2
[21] = Table 11, 15 days after treatment, dose 50 ga.i./hm^2
[22] = Table 11, 15 days after treatment, dose 100 ga.i./hm^2
[23] = Table 11, 15 days after treatment, dose 200 ga.i./hm^2
[24] = Table 11, 15 days after treatment, dose 400 ga.i./hm^2
[25] = Table 11, 30 days after treatment, dose 50 ga.i./hm^2
[26] = Table 11, 30 days after treatment, dose 100 ga.i./hm^2
[27] = Table 11, 30 days after treatment, dose 200 ga.i./hm^2
[28] = Table 11, 30 days after treatment, dose 400 ga.i./hm^2

How did the “Measured value E” value [1, 9] turn out when `CC(C)N.O=C(O)CNCP(=O)(O)O` [Glyphosate isopropylamine] was run?
The value was 25%.

And the “Measured value E” value [1, 10]?
Its value is 35%.

And the “Measured value E” value [1, 11]?
Its value is 65%.

And the “Measured value E” value [1, 12]?
Its value is 70%.

What about the “Measured value E” value [2, 9] of the same compound?
The value was 5%.

And the “Measured value E” value [2, 10]?
Its value is 25%.

What about the “Measured value E” value [2, 11] of the same compound?
The value was 50%.

What about the “Measured value E” value [2, 12] of the same compound?
The value was 65%.

What about the “Measured value E” value [3, 13] of the same compound?
Its value is 10%.

And the “Measured value E” value [3, 14]?
Its value is 20%.

And the “Measured value E” value [3, 15]?
The value was 50%.

And the “Measured value E” value [3, 16]?
The value was 65%.

And the “Measured value E” value [4, 13]?
The value was 0%.

And the “Measured value E” value [4, 14]?
The value was 15%.

What about the “Measured value E” value [4, 15] of the same compound?
The value was 30%.

What about the “Measured value E” value [4, 16] of the same compound?
The value was 45%.

And the “Control effect (visual observation %)” value [5, 17]?
Its value is 4.1%.

What about the “Control effect (visual observation %)” value [5, 18] of the same compound?
Its value is 36.9%.

And the “Control effect (visual observation %)” value [5, 19]?
The value was 62.2%.

What about the “Control effect (visual observation %)” value [5, 20] of the same compound?
The value was 66.7%.

And the “Control effect (visual observation %)” value [5, 21]?
Its value is 34.3%.

And the “Control effect (visual observation %)” value [5, 22]?
Its value is 48.7%.

And the “Control effect (visual observation %)” value [5, 23]?
Its value is 63.9%.

And the “Control effect (visual observation %)” value [5, 24]?
Its value is 64.5%.

What about the “Control effect (visual observation %)” value [5, 25] of the same compound?
Its value is 29.6%.

What about the “Control effect (visual observation %)” value [5, 26] of the same compound?
The value was 68.5%.

And the “Control effect (visual observation %)” value [5, 27]?
Its value is 100%.

And the “Control effect (visual observation %)” value [5, 28]?
The value was 99.0%.

What about the “Control effect (visual observation %)” value [6, 17] of the same compound?
Its value is 5.8%.

What about the “Control effect (visual observation %)” value [6, 18] of the same compound?
Its value is 16.2%.

What about the “Control effect (visual observation %)” value [6, 19] of the same compound?
Its value is 24.6%.

What about the “Control effect (visual observation %)” value [6, 20] of the same compound?
Its value is 43.5%.

And the “Control effect (visual observation %)” value [6, 21]?
The value was 9.0%.

What about the “Control effect (visual observation %)” value [6, 22] of the same compound?
Its value is 26.2%.

And the “Control effect (visual observation %)” value [6, 23]?
The value was 38.3%.

What about the “Control effect (visual observation %)” value [6, 24] of the same compound?
Its value is 38.0%.

What about the “Control effect (visual observation %)” value [6, 25] of the same compound?
The value was 6.8%.

What about the “Control effect (visual observation %)” value [6, 26] of the same compound?
Its value is 20.0%.

What about the “Control effect (visual observation %)” value [6, 27] of the same compound?
The value was 62.6%.

What about the “Control effect (visual observation %)” value [6, 28] of the same compound?
Its value is 79.9%.

With `CCCCOCN(C(=O)CCl)c1c(CC)cccc1CC` [Butachlor] as the compound, how does the “Measured value E” value ([7]; Table 3, dose 75 ga.i./hm^2) read?
Its value is 45%.

What about the “Measured value E” value ([7]; Table 3, dose 150 ga.i./hm^2) of the same compound?
The value was 60%.

What about the “Measured value E” value ([8]; Table 3, dose 75 ga.i./hm^2) of the same compound?
The value was 15%.

What about the “Measured value E” value ([8]; Table 3, dose 150 ga.i./hm^2) of the same compound?
The value was 25%.
